Where two headings read alike, the source gives them in different places.
Assays:
[1] = tested on: mature adipocytes (3T3-L1); experiment: Apoptosis assay (ApoStrand ELISA, single stranded DNA) in mature adipocytes; type: cell-based, mouse; conditions: for effect on apoptosis of mature adipocytes (ssDNA): individual compound, XN e.g. 50 μM at 48 hrs; for increased apoptosis, alone: XN or GS alone; for effect on apoptosis: compound alone at 25 and 50 μM; for % Increase in apoptosis mean ± s.e.m.: mature adipocytes, concentration (μM) is the number in the treatment label
Experimental: Apoptosis assays. For the assessment of apoptosis, the ApoStrand ELISA Apoptosis Detection Kit (Biomol, Plymouth Meeting, Pa.) was used. This kit detects single stranded DNA, which occurs in apoptotic cells but not in necrotic cells or in cells with DNA breaks in the absence of apoptosis. Adipocytes were incubated with DMSO or the test compounds for the indicated times and at the indicated concentrations. Thereafter, treatment media was removed and the cells were fixed for 30 min and assayed according to the manufacturer's instructions.
The enhanced reduction in cell viability by XN plus HK was evaluated to determine if the reduction in cell viability was attributable to apoptosis.
The effects of XN and G on mature adipocytes apoptosis were investigated by measuring the changes of the levels of single strained DNA (ssDNA) in the cells.
(§1) The enhanced reduction in cell viability by XN plus GS was evaluated to determine if the reduction in cell viability was attributable to apoptosis.

[2] = tested on: mature adipocytes (3T3-L1); experiment: Cell viability assay (MTS) in mature adipocytes; conditions: for effect on viability of mature adipocytes: individual compound, 24 and 48 h; for effect on cell viability: compound alone at 25 and 50 μM
Experimental: (§5) 3T3-L1 mouse fibroblast were obtained from American Type Culture Collection (Manassas, Va.) and were cultured in Dulbecco's modified Eagle's medium (DMEM) (GIBCO, Grand Island, N.Y.) containing 10% bovine calf serum (BCS) until confluent. Two days after confluency, the cells were stimulated to differentiate with an induction medium (hereinafter “MDI”), which comprises DMEM containing 10% FBS, 167 nM insulin (Sigma), 0.5 μg of isobutylmethylxanthine (IBMX) (Sigma), and 1 μm of dexamethasone (Sigma) for two (2) days. Cells were then maintained on 10% FBS/DMEM with 167 nM insulin for another 2 days, followed by culturing with FBS/DMEM for an additional four days, at which time more than 90% of cells were mature adipocytes with accumulated fat droplets. All media contained 100 U/ml of penicillin, 100 μg/ml of streptomycin, and 292 μg/ml of glutamine. Cells were maintained at 37° C. in a 5% CO2 humidified environment.
(§6) Cell viability assay. Adipocytes were incubated with dimethyl sulfoxide (DMSO) (0.02%) or test compounds. Prior to measuring viability, treatment media were removed and replaced with 100 μl fresh 10% FBS/DMEM medium and 20 μl MTS solution (Promega, Madison, Wis.). Cells were then returned to the incubator for an additional 2 h before 25 μl of 10% sodium dodecyl sulfate (SDS) was added to stop the reaction. The absorbance was measured at 490 nm in a plate reader (μQuant Bio-Tek Instruments, Inc. Winooski, Vt.) to determine the formazan concentration, which is proportional to the number of live cells.
(§7) Adipocytes were treated with XN (25, 50 μM) and HK (25, 50, 75 μM) as individual compounds or in combination for 12, 24, and 48 h. After treatment, cell viability was determined by the MTS assay, as described in Example 1.
(§8) Adipocytes were treated with XN (25, 50 μM) and G (50, 100 μM) as individual compounds or in combination for 24 and 48 h. After treatment, cell viability was determined by the MTS assay, as described in Example 1.
(§9) Adipocytes were treated with XN (25, 50, 75 μM) and GS (25, 50, 75 μM) as individual compounds or in combination for 24 and 48 h. After treatment, cell viability was determined by the MTS assay, as described in Example 1.

caspase-3/7 = experiment: Caspase-3 and 7 activity assay (Caspase-Glo 3/7) in mature adipocytes; type: cell-based, mouse; conditions: for caspase-3/7 activity: individual compound, XN 25, 50 μM, HK 25, 50, 75 μM, 12 h
Experimental: Caspase-3 and 7 activity assay. Adipocytes were incubated with DMSO or the test compounds and the indicated times and concentrations. Thereafter, 100 μl of caspase-Glo 3/7 reagent (Promega, Madison, Wis.) was added to each sample and the cells were incubated for 1 h and assayed according to the manufacturer's instructions.
Effects of XN and HK on caspase-3/−7 activation and PARP cleavage. To confirm apoptosis in response to combined treatment with XN and HK, the activity of caspase-3/7 was evaluated.
The caspases 3/7 activity was measured using a commercially available Caspase Glo 3/7 assay kit (Promega, Madison, Wis.), as described in Example 1.

mature adipocytes [3] = experiment: Lipolysis in mature adipocytes; type: cell-based, mouse; conditions: for lipolysis: XN or GS alone, 12 h incubation
Experimental: Effects of XN and HK on lipolysis in mature adipocytes. Mature adipocytes were incubated with either control or test compounds for indicated times.

mature adipocytes [4] = experiment: Hoechst staining of mature adipocytes; type: cell-based, mouse; conditions: XN or GS alone
Experimental: as §1

Bcl-2 protein = Bcl-2 protein expression (Western blot); type: cell-based, mouse; conditions: compound individually
Experimental: (§2) Western blot analysis. Following the indicated treatment, whole cell extracts were prepared by washing the cells with phosphate buffered saline (PBS) and suspending the cells in a lysis buffer (20 mM Tris, pH 7.5, 150 mM sodium chloride, 1 mM EDTA, 1 mM EGTA, 1% Triton X-100, 2.5 mM sodium pyrophosphate, 1 mM β-glycerophosphate, 1 mM sodium vanadate (Na3VO4), 1 μg/ml aprotinin, 1 μg/ml leupeptin, and 100 μg/ml phenylmethylsulfonyl fluoride). After 30 min of rocking at 4° C., the mixtures were centrifuged (10,000×g) for 10 min, and the supernatants were collected as whole-cell extracts. […] The protein concentration was determined by the method of Bradford with bovine serum albumin as the standard. […] Samples were heated to 70° C. for 10 min, separated by 12% acrylamide gels, and analyzed by immunoblotting. […]
(§3) Quantitative analysis of Western blot data. […] For statistical analysis, all data were expressed as integrated density values (IDV). For PARP, Bcl-2, and cytochrome c, IDVs were calculated as the density values of the specific protein bands/β-actin density values and expressed as percentage of the control.
To further investigate whether XN and GS affects the intrinsic apoptosis induction pathway, the expression of the anti-apoptotic Bcl-2 protein was evaluated by western blotting.

mature adipocytes [5] = experiment: Lipid content of mature adipocytes after 7-day treatment; type: cell-based, mouse; conditions: individual compound, XN 6 μM and 12 μM, GS 12 μM and 25 μM, seven days
3T3-L1 pre-adipocytes = experiment: Adipogenesis: lipid content (AdipoRed) during maturation of pre-adipocytes; type: cell-based, mouse; conditions: compound alone, days 0-6 of differentiation
Experimental: Quantification of lipid content and oil red O staining. Lipid content was measured using a commercially available kit (AdipoRed Assay Reagent; Cambrex Bio Science, Walkersville, Inc.). Briefly, test compositions and a 0.01% DMSO control were added with the induction medium for days 0-6 of adipogenesis. Medium was changed every 2 days. On day 6, intracellular lipid content was measured by AdipoRed Assay. Cells were washed with PBS (pH 7.4) and 200 μl of PBS was added to the wells. About 5 μl of AdipoRed reagent was added to each well. After 10 min, the plates were placed in the fluorometer and fluorescence was measured with excitation wavelength of 485 nm and emission wavelength of 572 nm. To visualize lipid content, treated cells were stained with oil red O and hematoxylin as described by Suryawan and Hu. After mounting with glycerol gelatin, three images for each dish were captured using ImagePro software (MediaCybernetics, Silver Spring, Md.).
Effects of XN and HK on adipogenesis of post-confluent pre-adipocytes during maturation. Post-confluent pre-adipocytes were induced to differentiate for 0-6 days in differentiation medium with or without XN or HK for indicated times. […]
To determine the synergistic effects of XN and GS on adipogenesis, the effect of XN and GS on inhibiting lipid accumulation in (FIG. 15A) and viability of (FIG. 15B) maturing 3T3-L1 adipocytes was determined.

cytochrome c = experiment: Cytochrome c release from mitochondria (Western blot); type: cell-based, mouse; conditions: compound alone at 50 μM
Experimental: as §2, §3
(§4) Effects of XN and HK cytochrome c release from mitochondria and PARP cleavage in mature adipocytes. To further investigate whether XN and HK affects the intrinsic apoptosis induction pathway, the induction of cytochrome c release was evaluated by Western blotting.

[6] = tested on: Poly (ADP-ribose) polymerase (PARP); experiment: PARP cleavage in mature adipocytes (Western blot); type: cell-based, mouse; conditions: compound alone
Experimental: as §2, §3, §4

[7] = tested on: mature adipocytes (3T3-L1); conditions: mouse, 48 h
Experimental: as §5, §6, §7, §8, §9

Structure (SMILES)	effect on apoptosis of mature adipocytes (ssDNA) [1]	effect on viability of mature adipocytes ([2]; XN 25, 50 μM, G 50, 100 μM)	increased apoptosis, alone [1]	lipolysis (mature adipocytes [3])	Hoechst staining, individual treatments (mature adipocytes [4])	Bcl-2 protein level (Bcl-2 protein)	lipid accumulation in mature adipocytes (mature adipocytes [5])	effect on viability of mature adipocytes ([2]; XN or GS 25, 50, 75 μM)	effect on apoptosis ([1]; 24 h)	caspase-3/7 activity (caspase-3/7)	lipid accumulation during maturation (3T3-L1 pre-adipocytes)	effect on cytochrome c release (cytochrome c)	effect on PARP cleavage [6]	effect on cell viability ([2]; 48 h)	other results
O=c1c(-c2ccc(O)cc2)coc2cc(O)cc(O)c12 [G, 4,5,7-trihydroxyisoflavone]	did not affect apoptosis	did not affect the viability													
C/C=C1\C(=O)C[C@H]2[C@@H]3CCC4=CC(=O)CC[C@]4(C)[C@H]3CC[C@]12C [GS, Guggulsterone]			about 20%	increased lipolysis slightly	small increase in staining	decreased Bcl-2	decreased lipid accumulation	decreased the viability of mature adipocytes in a dose-dependent and time-dependent manner							caspase 3/7 activity (caspase-3/7; GS alone at 75 μM): increased caspase activity
C=CCc1ccc(O)c(-c2ccc(O)c(CC=C)c2)c1 [HK, Honokiol]									no effect	increased caspase-3/7 activity in a dose-dependent manner	increased lipid accumulation	neither 50 μM of XN nor 50 μM of HK had an effect	neither compound alone may affect	no effect	increased apoptosis ([1]; alone at 75 μM, 24 h, P<0.05): 70.4±15.9%; % Increase in apoptosis mean ± s.e.m. ([1]; 24 h, listed as HK50): 10.8 ± 5.9%; % Increase in apoptosis mean ± s.e.m. ([1]; 24 h, listed as HK75): 70.4 ± 15.9%; % Decrease in viability mean ± s.e.m. [7]: −1.8 ± 1.5%; cytotoxicity at 75 µM ([2]; Mus musculus, 3T3-L1, 48 h, read-out: decreased cell viability): 9.1 ± 2.5%
COc1cc(O)c(CC=C(C)C)c(O)c1C(=O)/C=C/c1ccc(O)cc1 [XN, Xanthohumol]	increased apoptosis	decreased the viability of mature adipocytes in a dose-dependent and time-dependent manner	about 20%	increased lipolysis slightly	small increase in staining	decreased Bcl-2	decreased lipid accumulation	decreased the viability of mature adipocytes in a dose-dependent and time-dependent manner	no effect	increased caspase-3/7 activity in a dose-dependent manner	decreased lipid accumulation	neither 50 μM of XN nor 50 μM of HK had an effect	neither compound alone may affect	no effect	% Increase in apoptosis mean ± s.e.m. ([1]; 24 h): 51.0 ± 16.5%; increase in lipolysis (mature adipocytes [3]; XN 50 μM alone): 20%; % Decrease in viability mean ± s.e.m. ([2]; mature adipocytes, 48 h, concentration (μM) is the number in the treatment label): −2.8 ± 1.5%
